{"source": "patent US20230165824A1", "about": "“METHODS, SYSTEMS AND COMPOSITIONS FOR INHIBITION OF CELLULAR DYSFUNCTION AND CELL DEATH WITH DEUTERATED PUFAs” (BioJiva LLC, priority 2021, published 2023)", "key": {"[1]": {"test_system": "murine fibroblasts", "details": "for % Cell Survival: murine fibroblasts treated with 50 micromolar erastin, plate dilution assay; for Level of protection against LPO induced cell death relative to 13,13-D2-arachidonic acid: murine fibroblasts, 50 micromolar erastin", "quoted_text": "In this example, two different pools of cells were each seeded in 48-well plates and treated with 50 micromolar of erastin.\nAfterwards, cell viability was measured by plate dilution assay to distinguish between cells that are alive and those that are dead on a Petri dish."}, "[2]": {"details": "ALS patients on D2-LA; based on total AA and D2-AA; 'when calculated'", "method": "(§1) Patients suffering from ALS were treated with D2-LA over a period of time. […] Some patients were provided 2 grams of 11,11-D-2 LA per day as opposed to the loading dose of 9 grams per day.\n(§2) Functional scores for each of the patients (ALSFRS-R results) at the end of therapy were compared to the natural history scores at the start of therapy."}, "[3]": {"details": "INAD children, 3.9 grams D2-LA ethyl ester daily for 1 month then 2.9 grams", "method": "In this example, children suffering from INAD were treated with a daily dose of 3.9 grams of D2-LA ethyl ester followed by 2.9 grams of D2-LA ethyl ester. Given the age and weight of these children, such is assumed to be substantially equivalent to a loading dose of from about 7 and about 12 grams per day for an adult patient for an adult patient and a maintenance dose which is less than the loading dose again for an adult patient.\nThis example also determines the concentration of D2-AA in RBCs. Specifically, a cohort of 14 children was provided with a daily dose of 3.9 grams of D2-LA ethyl ester for 1 month followed by 2.9 grams of D2-LA ethyl ester for the remaining six-month period. Blood samples were taken at 3 months for all but 1 child and at 6 months for all children. The concentration of D2-AA in RBCs was measured."}, "[4]": {"details": "6 months; 15 INAD infants treated"}, "[5]": {"assay": "Determination of D2-AA and D2-LA concentrations in CSF and RBCs in a single patient (Example 1)", "source_text": "This example determines the relative concentration of D2-AA in the CSF and in RBCs in order to determine a correlation between these two concentrations. Specifically, a patient was continuously provided with a daily dose of 9 grams of D2-LA ethyl ester (which is 8.64 grams of active discounting for impurities and removal of the ethyl ester) over about a six-month period. Periodic samples of blood and CSF were taken and the concentration of both D2-LA and D-2AA in both the RBCs and the CSF were measured. In all cases, the D2-AA was obtained by deacylation of the ethyl ester of linoleic acid in the gastrointestinal tract followed by conversion of D2-LA in vivo to D2-AA."}, "[6]": {"test_system": "patients with ALS", "assay": "ALSFRS-R rate of functional decline in ALS patients on primer/maintenance dosing regimen (Example 3)", "type": "in vivo, human", "details": "for Annualized average reduction in the rate of disease progression: 9 grams then 5 grams daily, vs natural history", "method": "As set forth in the examples below, the rate of functional decline is predicated on measuring an individual's, or a cohort's, average for the natural history of disease progression. Next, the individual or cohort average for the functional decline is determined at a period of time such as at 3, 6 or 12 months after initiation of therapy. The rate of decline based on the average of the natural history of the cohort is set as the denominator. The numerator is set as the delta between the rate of the natural history of disease progression and the rate of functional decline after a set period of treatment per this invention. The resulting fraction is the multiplied by 100 to give a percent change. The following exemplifies this analysis.\nThis example illustrates the reduction in the rate of disease progression in patients with ALS treated by the dosing methods described herein, this example evidences that the amount of oxidized PUFA products has been reduced to a level that allows the otherwise impaired regulatory enzymes are able to neutralize substantially all of these oxidized products now generated. Specifically, a cohort of 3 patients was placed on a dosing regimen consisting of a first dosing component (primer dose) of about 9 grams of D2-LA ethyl ester daily for a period of at least 30 days and then all three patients were transitioned to a second dosing component (maintenance dose) of 5 grams of D2-LA ethyl ester.\nThe functionality of each of the patients was evaluated periodically using the ALSFRS-R protocol. The patients continued on the dosing regimen for a period of 6 months (patient A) or 1 year (patient B) or for 9 months (patient C). Patient C died at the end of 9 months and their death was attributed to factors other than ALS cardiomyopathy. Before initiation of therapy, the natural history of each patient in the cohort was determined and an average annual rate of functional decline was measured at 21.\nThe annualized progression of the disease, as measured by an average annual rate of functional decline for all three patients starting at the time that dosing began and terminating at the end of the dosing regimen and then annualized as described above, was measured as 2.1. Using the formula described above, one obtains the following: […]"}, "[7]": {"test_system": "infants suffering from INAD", "assay": "Open label treatment study of INAD patients (Example 6)", "type": "in vivo, human", "method": "Novel and conventional developmental neurologic assessment scales appropriate to the disease and which measure vital function in different parts of the brain were applied at base line and at 6 monthly intervals and the health and well-being of the infants were assessed continuously for 1-2 years, including any aspiration pneumonia, hospitalizations and deaths."}, "[8]": {"test_system": "patients suffering from ALS", "assay": "ALSFRS-R rate of functional decline in ALS patients treated with D2-LA (Comparative Example A)", "type": "in vivo, human", "method": "as §1, §2"}, "[9]": {"details": "3 months, single patient, daily 9 grams D2-LA ethyl ester"}, "[10]": {"details": "6 months, single patient, daily 9 grams D2-LA ethyl ester"}}, "note": "Where two headings read alike, the source gives them in different places."}
{"smiles": "[2H]C([2H])(/C=C\\CCCCC)/C=C\\C([2H])([2H])/C=C\\C([2H])([2H])/C=C\\CCCC(=O)O", "values": [{"measurement": "% Cell Survival", "setting": "[1]", "value": 70.2, "unit": "%"}, {"measurement": "Level of protection against LPO induced cell death relative to 13,13-D2-arachidonic acid", "setting": "[1]", "value": "approximately twice the level of protection"}, {"measurement": "Level of protection against LPO induced cell death relative to 13,13-D2-arachidonic acid", "setting": "[1]; listed as D6-AA", "value": "about 2"}]}
{"smiles": "[2H]C([2H])(/C=C\\C/C=C\\C/C=C\\CCCC(=O)O)/C=C\\CCCCC", "note": "[D2-AA, 13,13-D2-Arachidonic Acid]", "values": [{"measurement": "Amount of D2-AA in the patients' RBCs, average", "setting": "[2]", "value": "about 3%"}, {"measurement": "Average concentration of D2-AA in the RBCs", "setting": "[3]; 3 months", "value": 12, "unit": "%"}, {"measurement": "Average concentration of D2-AA in the RBCs", "setting": "[3]; 6 months", "value": 16.7, "unit": "%"}, {"measurement": "Average plasma level of D2-AA", "setting": "[4]", "value": 17.4, "unit": "%"}, {"measurement": "Amount of D2-AA in RBCs at 1 month, estimated by linear extrapolation", "setting": "[5]; 1 month, extrapolated from 3 and 6 month values (FIG. 1)", "value": "about 3%"}, {"measurement": "Concentration of D2-AA in CSF", "setting": "[5]; 1 month, single patient, daily 9 grams D2-LA ethyl ester, based on arachidonic acid + deuterated arachidonic acid", "value": 8, "unit": "%"}, {"measurement": "Concentration of D2-AA in RBCs", "setting": "[5]; [9]", "value": 11.8, "unit": "%"}, {"measurement": "Concentration of D2-AA in RBCs", "setting": "[5]; [10]", "value": 16.7, "unit": "%"}, {"measurement": "% Cell Survival", "setting": "[1]", "value": 33.2, "unit": "%"}]}
{"smiles": "[2H]C([2H])(/C=C\\CCCCC)/C=C\\CCCCCCCC(=O)OCC", "note": "[D2-LA ethyl ester, 11,11-D2-linoleic acid ethyl ester]", "values": [{"measurement": "Functional Rate Decline During Therapy", "setting": "[6]; Patient A, 6 months on regimen, NH rate of decline −16", "value": "−3"}, {"measurement": "Functional Rate Decline During Therapy", "setting": "[6]; Patient B, 1 year on regimen, NH rate of decline −31", "value": "−2"}, {"measurement": "Functional Rate Decline During Therapy", "setting": "[6]; Patient C, 9 months on regimen, NH rate of decline −16", "value": "−1.3"}, {"measurement": "Annualized average reduction in the rate of disease progression", "setting": "[6]; cohort of 3 ALS patients", "value": 90, "unit": "%"}, {"measurement": "Average annual rate of functional decline (ALSFRS-R) during dosing, annualized", "setting": "[6]; cohort of 3 ALS patients, about 9 grams daily at least 30 days then 5 grams, natural history 21", "value": 2.1}]}
{"smiles": "[2H]C([2H])(/C=C\\CCCCC)/C=C\\CCCCCCCC(=O)O", "note": "[D2-LA, 11,11-D2-Linoleic Acid]", "values": [{"measurement": "Deaths due to other causes", "setting": "[7]; 19 INAD infants treated", "value": 2}, {"measurement": "Non-fatal pneumonia", "setting": "[7]; 19 INAD infants treated", "value": 2}, {"measurement": "Serious events", "setting": "[7]; 19 INAD infants treated at least 1 year and up to 2.5 years", "value": 4}, {"measurement": "No. of Aspirations resulting in pneumonias", "setting": "[7]; 19 INAD infants treated at least 1 year and up to 2.5 years, natural history 10/37", "value": "2/19"}, {"measurement": "Percent mortality", "setting": "[7]; 19 INAD infants treated, mortality from pneumonias, natural history 21.6%", "value": 0, "unit": "%"}, {"measurement": "Fatal Pneumonias", "setting": "[7]; 19 INAD infants treated, natural history 8", "value": 0}, {"measurement": "Percent Pneumonias", "setting": "[7]; 19 INAD infants treated, natural history 27.0%", "value": 10.5, "unit": "%"}, {"measurement": "Deaths due to aspiration pneumonia", "setting": "[7]; 19 subjects over 2.5 years treatment", "value": "no deaths due to aspiration pneumonia"}, {"measurement": "Annualized average reduction in the rate of disease progression", "setting": "[6]; cohort of 3 ALS patients", "value": "~90", "unit": "%"}, {"measurement": "Annualized rate of decline (ALSFRS-R) during treatment", "setting": "[8]; different dosing amounts and periods of D2-LA (some 2 grams per day), pre-treatment −14.2+/−4.4", "value": "−7.6+/−1.4 per year"}, {"measurement": "Reduction in rate of decline vs pre-treatment", "setting": "[8]; p=0.07, paired t-test for within-subject change in slope", "value": 46, "unit": "%"}, {"measurement": "Concentration of D2-LA in CSF", "setting": "[5]; 1 month, single patient, daily dose of 9 grams of D2-LA ethyl ester", "value": 19.8, "unit": "%"}, {"measurement": "Concentration of D2-LA in RBCs", "setting": "[5]; [9]", "value": 34.7, "unit": "%"}, {"measurement": "Concentration of D2-LA in RBCs", "setting": "[5]; [10]", "value": 34.5, "unit": "%"}]}
